Assay results published in the supplement of paper PMC10331698.
± gives the standard deviation of the averaged measurements.

How the values were obtained:
Assay in all cases: level (log10 ratio to DMSO vehicle control); higher = higher biomarker level / cell amount than vehicle control
Conditions in all cases: in DMSO
Perfluoropentanoic acid = compound: O=C(O)C(F)(F)C(F)(F)C(F)(F)C(F)(F)F [Perfluoropentanoic acid]
Description: (§1)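 BioMAP Diversity Plus panel of 12 human primary cell co-culture systems (3C, 4H, LPS, SAg, BT, BF4T, BE3C, CASM3C, HDF3CGF, KF3CT, MyoF, Mphg). Compounds were added 1 h before stimulation and left for 24 h (MyoF 48 h; BT 72 h for soluble read-outs or 6 d for IgG). Biomarkers were read by ELISA, cytotoxicity by SRB, PBMC viability and proliferation by Alamar Blue. Each well value was divided by the mean of 8 DMSO control wells on the same plate and log10 transformed; duplicate blinded samples were tested at 4 concentrations.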

[1] = compound: C=C(C)C(=O)OCCC(F)(F)C(F)(F)C(F)(F)C(F)(F)C(F)(C(F)(F)F)C(F)(F)F [(Perfluoro-5-methylhexyl)ethyl 2-methylprop-2-enoate]
Description: as §1

Pentafluoropropionamide = compound: NC(=O)C(F)(F)C(F)(F)F [Pentafluoropropionamide]
Description: as §1

Perfluoroheptanoic acid = compound: O=C(O)C(F)(F)C(F)(F)C(F)(F)C(F)(F)C(F)(F)C(F)(F)F [Perfluoroheptanoic acid]
Description: as §1

[2] = compound: O=C(O)C(F)(F)C(F)(F)C(F)(F)C(F)(F)C(F)(F)C(F)(F)C(F)(F)C(F)F [9-H-Perfluorononanoic acid]
Description: as §1

[3] = compound: O=C(O)C(F)(F)C(F)(F)C(F)F [4H-Perfluorobutanoic acid]
Description: as §1

Heptafluorobutyramide = compound: NC(=O)C(F)(F)C(F)(F)C(F)(F)F [Heptafluorobutyramide]
Description: as §1

Test System	level (log10) (Perfluoropentanoic acid; 6700 nM)	level (log10) (Perfluoropentanoic acid; 20000 nM)	level (log10) (Perfluoropentanoic acid; 60000 nM)	level (log10) ([1]; 6700 nM)	level (log10) ([1]; 20000 nM)	level (log10) (Pentafluoropropionamide; 6700 nM)	level (log10) (Pentafluoropropionamide; 20000 nM)	level (log10) (Pentafluoropropionamide; 60000 nM)	level (log10) (Perfluoroheptanoic acid; 6700 nM)	level (log10) (Perfluoroheptanoic acid; 20000 nM)	level (log10) (Perfluoroheptanoic acid; 60000 nM)	level (log10) ([2]; 6700 nM)	level (log10) ([2]; 20000 nM)	level (log10) ([2]; 60000 nM)	level (log10) ([3]; 6700 nM)	level (log10) ([3]; 20000 nM)	level (log10) ([3]; 60000 nM)	level (log10) (Heptafluorobutyramide; 6700 nM)	level (log10) (Heptafluorobutyramide; 20000 nM)	level (log10) (Heptafluorobutyramide; 60000 nM)
CASM3C:Proliferation	0.0185 ± 0.021	-0.0305 ± 0.067	0.0215 ± 0.052	-0.036 ± 0.0014	-0.054 ± 0.071	-0.0115 ± 0.015	-0.0025 ± 0.011	0.0235 ± 0.069	-0.023 ± 0.0085	-0.008 ± 0.035	0.0045 ± 0.053	0.012 ± 0.011	-0.016 ± 0.013	0.028 ± 0.088	0.0045 ± 0.011	-0.0185 ± 0.066	0.0045 ± 0.04	-0.0675 ± 0.098	0.0315 ± 0.018	-0.0275 ± 0.087
CASM3C:SRB	0.0095 ± 0.0021	-0.008 ± 0.0014	0.004 ± 0.0099	-0.0025 ± 0.005	-0.0095 ± 0.0035	-0.002 ± 0.0057	0 ± 0.0085	-0.0045 ± 0.00071	-0.008 ± 0.0099	-0.011 ± 0.0014	-0.0065 ± 0.012	0.0045 ± 0.005	0.0035 ± 0.0035	-0.001 ± 0.0057	-0.0015 ± 0.0078	-0.002 ± 0.0071	0 ± 0.0099	-0.0135 ± 0.0078	0 ± 0.018	-0.0065 ± 0.0078
CASM3C:Serum Amyloid A	-0.003 ± 0.0071	-0.013 ± 0.011	-0.0045 ± 0.033	-0.0325 ± 0.021	0.025 ± 0.0085	0.0045 ± 0.015	-0.0055 ± 0.0035	0.0245 ± 0.005	-0.006 ± 0.021	-0.013 ± 0.04	0.022 ± 0.082	-0.0295 ± 0.035	-0.02	0.0435 ± 0.053	-0.056 ± 0.038	-0.083 ± 0.055	-0.0715 ± 0.11	-0.0555 ± 0.023	-0.0445 ± 0.042	-0.0065 ± 0.096
HDF3CGF:CCL2/MCP-1	-0.03 ± 0.017	-0.054 ± 0.013	-0.022 ± 0.048	-0.0335 ± 0.0092	-0.024 ± 0.023	-0.024 ± 0.034	-0.0245 ± 0.012	-0.015 ± 0.031	-0.0085 ± 0.0064	0.0135 ± 0.00071	0.0115 ± 0.016	-0.023 ± 0.028	-0.0185 ± 0.044	-0.0415 ± 0.052	-0.0385 ± 0.021	-0.018 ± 0.051	0.049 ± 0.0071	0.0005 ± 0.04	0.0055 ± 0.036	0.0185 ± 0.066
HDF3CGF:CD54/ICAM-1	0.039 ± 0.054	0.035 ± 0.033	0.0485 ± 0.046	0.0005 ± 0.016	-0.0045 ± 0.026	-0.01 ± 0.052	0.017 ± 0.024	-0.0025 ± 0.0064	0.004 ± 0.02	-0.0145 ± 0.005	-0.0255 ± 0.018	-0.035 ± 0.042	-0.052 ± 0.021	-0.045 ± 0.02	0.009 ± 0.021	0.013 ± 0.0099	0.0035 ± 0.005	-0.0045 ± 0.021	0.0035 ± 0.0092	-0.001 ± 0.0099
HDF3CGF:CD106/VCAM-1	-0.0095 ± 0.005	0.0035 ± 0.036	0.0035 ± 0.022	0.02 ± 0.023	-0.0275 ± 0.011	-0.0335 ± 0.022	-0.0305 ± 0.025	-0.0225 ± 0.044	-0.034 ± 0.027	-0.0135 ± 0.029	-0.021 ± 0.038	-0.041 ± 0.018	-0.064 ± 0.013	-0.066 ± 0.013	-0.0385 ± 0.018	-0.0525 ± 0.022	-0.0445 ± 0.096	0.0035 ± 0.0092	-0.012 ± 0.018	-0.0345 ± 0.054
HDF3CGF:CXCL8/IL-8	0.003 ± 0.0057	-0.006 ± 0.0028	0.002 ± 0.023	-0.004 ± 0.0042	0.0025 ± 0.005	-0.006 ± 0.0057	-0.0105 ± 0.00071	-0.0065 ± 0.013	-0.0055 ± 0.0078	-0.0055 ± 0.0064	0.0095 ± 0.013	-0.0055 ± 0.0021	-0.0055 ± 0.0064	0.0015 ± 0.0035	0.001 ± 0.0014	0.0025 ± 0.0078	0.0095 ± 0.023	-0.003 ± 0.0057	0.002 ± 0.0014	0.0045 ± 0.012
HDF3CGF:CXCL9/MIG	-0.004 ± 0.0057	-0.004 ± 0.018	-0.003 ± 0.02	0.0135 ± 0.00071	0.0095 ± 0.011	-0.016 ± 0.0042	0.0095 ± 0.00071	0.0015 ± 0.0078	-0.009 ± 0.0071	-0.002 ± 0.021	0.0165 ± 0.0064	-0.0475 ± 0.022	-0.052 ± 0.0071	-0.0735 ± 0.016	-0.0015 ± 0.033	-0.0035 ± 0.025	-0.0125 ± 0.028	0.0055 ± 0.026	0.0035 ± 0.019	-0.0225 ± 0.025
HDF3CGF:CXCL10/IP-10	0 ± 0.014	-0.011 ± 0.0028	0.006 ± 0.0057	-0.0005 ± 0.0078	-0.003	-0.0075 ± 0.022	-0.009 ± 0.011	0.006 ± 0.04	-0.0295 ± 0.046	-0.015 ± 0.016	-0.0295 ± 0.0092	-0.0535 ± 0.016	-0.023 ± 0.02	-0.052 ± 0.017	-0.0145 ± 0.016	0.0025 ± 0.0021	0.0085 ± 0.012	0.007 ± 0.0099	0 ± 0.0057	0.0035 ± 0.011
HDF3CGF:CXCL11/I-TAC	-0.0085 ± 0.012	-0.0065 ± 0.015	0.005 ± 0.054	-0.013 ± 0.0014	-0.0155 ± 0.013	0.0135 ± 0.0035	0.0195 ± 0.018	0.022 ± 0.024	-0.0165 ± 0.013	0.003 ± 0.011	0.01 ± 0.016	-0.059 ± 0.0085	-0.078 ± 0.0099	-0.09 ± 0.021	-0.0155 ± 0.071	0.003 ± 0.0071	0.0125 ± 0.0035	0.0015 ± 0.00071	-0.0015 ± 0.0092	-0.0305 ± 0.015
HDF3CGF:Collagen I	-0.0295 ± 0.012	-0.01 ± 0.0014	0.003 ± 0.064	0.0115 ± 0.067	0.034 ± 0.092	0.039 ± 0.075	0.0205 ± 0.033	0.055 ± 0.047	-0.036 ± 0.045	-0.009 ± 0.024	0.0395 ± 0.061	-0.0315 ± 0.1	0.009 ± 0.096	0.015 ± 0.052	-0.0445 ± 0.028	-0.024 ± 0.072	0.0525 ± 0.029	0.0065 ± 0.011	-0.0025 ± 0.015	0.0155 ± 0.069
HDF3CGF:Collagen III	0.005 ± 0.014	0.01 ± 0.017	0.033 ± 0.034	-0.0195 ± 0.05	0.0105 ± 0.05	0.026 ± 0.02	0.009 ± 0.028	0.034 ± 0.0028	-0.021 ± 0.011	-0.0385 ± 0.033	-0.013 ± 0.016	-0.047 ± 0.013	-0.115 ± 0.013	-0.155 ± 0.057	-0.005 ± 0.088	0.03 ± 0.054	0.072 ± 0.042	-0.017 ± 0.014	-0.006 ± 0.013	-0.0145 ± 0.005
